{"source": "ChEMBL document CHEMBL4507297", "about": "“Data for DCP probe PF-04457845” (2021)", "key": {"[1]": {"target": "Na+ channel (site 2); sodium channel alpha subunit (Homo sapiens, UniProt P35498+P35499+Q01118+Q14524+Q15858+Q99250+Q9NY46+Q9UI33+Q9UQD0+Q9Y5Y9)", "assay": "Na+ channel (site 2) CEREP ligand profiling", "type": "protein assay", "conditions": "compound concentration 10 uM; call rule not given here"}, "[2]": {"target": "T1, 5-hydroxytryptamine receptor 2B (Homo sapiens, UniProt P41595)", "T1 sequence (P41595 whole entry)": "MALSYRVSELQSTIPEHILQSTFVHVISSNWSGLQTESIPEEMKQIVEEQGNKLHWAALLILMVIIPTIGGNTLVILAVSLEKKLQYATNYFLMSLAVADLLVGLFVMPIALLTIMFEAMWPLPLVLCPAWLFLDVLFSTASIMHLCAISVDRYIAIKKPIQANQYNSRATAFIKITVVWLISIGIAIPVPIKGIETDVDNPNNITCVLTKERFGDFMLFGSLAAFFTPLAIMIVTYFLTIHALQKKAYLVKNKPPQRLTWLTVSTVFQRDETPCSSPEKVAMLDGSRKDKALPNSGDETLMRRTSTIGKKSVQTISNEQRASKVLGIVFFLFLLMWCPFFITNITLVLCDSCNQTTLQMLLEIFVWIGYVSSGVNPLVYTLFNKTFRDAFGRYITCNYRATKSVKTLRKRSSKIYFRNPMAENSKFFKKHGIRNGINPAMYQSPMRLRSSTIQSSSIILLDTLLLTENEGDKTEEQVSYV", "assay": "GPCRScan assay: inhibition of 5-HT2B", "design": "radioligand conc. used [nm] 1.0 – 2.0, parental cells stable HEK"}, "[3]": {"target": "Muscarinic acetylcholine receptor M3 (Homo sapiens) (UniProt P20309)", "sequence (P20309 whole entry, looked up)": "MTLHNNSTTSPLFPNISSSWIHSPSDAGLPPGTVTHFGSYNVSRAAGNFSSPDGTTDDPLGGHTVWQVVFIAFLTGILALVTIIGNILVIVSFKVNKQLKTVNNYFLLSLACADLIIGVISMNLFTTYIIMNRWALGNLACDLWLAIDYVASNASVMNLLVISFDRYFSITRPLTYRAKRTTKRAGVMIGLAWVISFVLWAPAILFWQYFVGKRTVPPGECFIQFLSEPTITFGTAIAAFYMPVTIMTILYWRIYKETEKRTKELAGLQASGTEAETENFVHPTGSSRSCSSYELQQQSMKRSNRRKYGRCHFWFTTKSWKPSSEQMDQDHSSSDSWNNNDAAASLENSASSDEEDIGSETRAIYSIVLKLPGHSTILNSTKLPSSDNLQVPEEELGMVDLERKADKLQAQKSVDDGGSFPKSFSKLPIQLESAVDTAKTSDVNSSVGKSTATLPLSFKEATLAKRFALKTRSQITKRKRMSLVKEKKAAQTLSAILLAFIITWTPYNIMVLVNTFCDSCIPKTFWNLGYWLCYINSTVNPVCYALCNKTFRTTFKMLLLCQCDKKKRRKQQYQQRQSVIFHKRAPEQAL", "assay": "M3 (h) CEREP ligand profiling", "conditions": "Compound concentration 10.0 uM"}, "[4]": {"target": "T2, Muscarinic acetylcholine receptor M2 (Homo sapiens) (UniProt P08172)", "T2 sequence (whole entry)": "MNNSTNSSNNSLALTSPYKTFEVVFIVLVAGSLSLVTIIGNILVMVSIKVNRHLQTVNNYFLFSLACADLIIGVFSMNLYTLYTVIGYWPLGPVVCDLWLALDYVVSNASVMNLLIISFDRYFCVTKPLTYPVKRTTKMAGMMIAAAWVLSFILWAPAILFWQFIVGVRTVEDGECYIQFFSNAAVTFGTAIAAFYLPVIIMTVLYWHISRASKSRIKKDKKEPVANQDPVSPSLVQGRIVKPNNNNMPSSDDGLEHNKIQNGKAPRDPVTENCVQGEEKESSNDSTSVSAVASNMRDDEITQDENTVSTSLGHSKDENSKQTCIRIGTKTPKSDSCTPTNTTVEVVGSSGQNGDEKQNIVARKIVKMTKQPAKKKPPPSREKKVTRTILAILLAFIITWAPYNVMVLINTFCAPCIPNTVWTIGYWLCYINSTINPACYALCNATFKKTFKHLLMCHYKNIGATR", "assay": "M2 (h) CEREP ligand profiling", "conditions": "Compound concentration 10.0 uM"}, "[5]": {"target": "Glutamate receptor ionotropic, AMPA (Rattus norvegicus) (UniProt P19491+P19492+P19493+P19490)", "assay": "AMPA CEREP ligand profiling", "type": "protein-complex assay", "conditions": "Compound concentration 10.0 uM"}, "[6]": {"target": "Sodium- and chloride-dependent GABA transporter 1 (Homo sapiens) (UniProt P30531)", "sequence (P30531 whole entry, looked up)": "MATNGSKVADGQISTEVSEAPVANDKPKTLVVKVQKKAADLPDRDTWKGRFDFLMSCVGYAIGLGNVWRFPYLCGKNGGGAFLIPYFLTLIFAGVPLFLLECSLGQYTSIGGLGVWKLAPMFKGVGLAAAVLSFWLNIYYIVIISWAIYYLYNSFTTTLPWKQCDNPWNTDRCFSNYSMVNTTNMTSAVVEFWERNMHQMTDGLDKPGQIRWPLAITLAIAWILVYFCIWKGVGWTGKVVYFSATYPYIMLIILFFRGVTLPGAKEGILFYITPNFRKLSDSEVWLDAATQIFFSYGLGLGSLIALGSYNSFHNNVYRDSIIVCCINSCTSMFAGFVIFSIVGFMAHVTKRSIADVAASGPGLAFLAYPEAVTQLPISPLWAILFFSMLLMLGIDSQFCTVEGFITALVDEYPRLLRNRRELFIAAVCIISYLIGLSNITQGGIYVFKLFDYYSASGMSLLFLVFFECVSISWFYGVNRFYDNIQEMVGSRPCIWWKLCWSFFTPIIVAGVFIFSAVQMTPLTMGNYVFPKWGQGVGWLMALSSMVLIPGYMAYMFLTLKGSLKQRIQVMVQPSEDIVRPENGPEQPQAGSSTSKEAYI", "assay": "GABA transporter CEREP ligand profiling", "conditions": "Compound concentration 10.0 uM"}, "[7]": {"target": "T1, 5-hydroxytryptamine receptor 2B", "assay": "5-HT2B (h) (agonist site) CEREP ligand profiling", "conditions": "Compound concentration 10.0 uM"}, "[8]": {"target": "Histamine H2 receptor (Homo sapiens) (UniProt P25021)", "sequence (P25021 whole entry)": "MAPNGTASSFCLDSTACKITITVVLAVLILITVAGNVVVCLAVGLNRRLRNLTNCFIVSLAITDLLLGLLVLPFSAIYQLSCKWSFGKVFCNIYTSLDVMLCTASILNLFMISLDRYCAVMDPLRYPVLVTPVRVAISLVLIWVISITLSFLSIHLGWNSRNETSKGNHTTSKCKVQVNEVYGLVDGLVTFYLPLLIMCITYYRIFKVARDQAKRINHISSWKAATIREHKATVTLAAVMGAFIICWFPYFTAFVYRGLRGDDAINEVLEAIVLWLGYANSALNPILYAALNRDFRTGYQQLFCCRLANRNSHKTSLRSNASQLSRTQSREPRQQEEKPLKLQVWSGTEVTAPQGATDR", "assay": "H2 (h) CEREP ligand profiling", "conditions": "Compound concentration 10.0 uM"}, "[9]": {"target": "Histamine H1 receptor (Homo sapiens) (UniProt P35367)", "assay": "H1 (h) CEREP ligand profiling", "conditions": "Compound concentration 10.0 uM"}, "[10]": {"assay": "Glycine (strychnine-insensitive) CEREP ligand profiling", "conditions": "Compound concentration 10.0 uM"}, "[11]": {"target": "T3, 5-hydroxytryptamine receptor 3A (Homo sapiens) (UniProt P46098)", "T3 sequence (whole entry)": "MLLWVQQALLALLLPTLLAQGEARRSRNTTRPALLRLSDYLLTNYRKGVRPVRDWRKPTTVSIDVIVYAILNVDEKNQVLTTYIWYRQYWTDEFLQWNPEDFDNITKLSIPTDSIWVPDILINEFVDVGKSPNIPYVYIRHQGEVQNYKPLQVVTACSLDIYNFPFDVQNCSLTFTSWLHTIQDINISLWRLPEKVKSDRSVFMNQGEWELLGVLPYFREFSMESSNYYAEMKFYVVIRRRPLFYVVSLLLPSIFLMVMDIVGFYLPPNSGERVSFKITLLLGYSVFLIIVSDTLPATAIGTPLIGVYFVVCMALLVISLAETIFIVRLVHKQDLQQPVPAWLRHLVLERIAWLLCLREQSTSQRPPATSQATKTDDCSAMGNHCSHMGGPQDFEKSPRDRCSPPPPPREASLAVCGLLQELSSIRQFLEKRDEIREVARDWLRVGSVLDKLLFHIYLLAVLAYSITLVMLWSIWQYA", "assay": "5-HT3 (h) CEREP ligand profiling", "conditions": "Compound concentration 10.0 uM"}, "[12]": {"target": "Neuronal acetylcholine receptor; alpha4/beta2 (Homo sapiens) (UniProt P17787+P43681)", "assay": "N(neuronal) (α-BGTX-insensitive) (α4β2 nicotinic receptor) CEREP ligand profiling", "conditions": "Compound concentration 10.0 uM"}, "[13]": {"target": "Beta-1 adrenergic receptor (Homo sapiens) (UniProt P08588)", "sequence (P08588 whole entry, looked up)": "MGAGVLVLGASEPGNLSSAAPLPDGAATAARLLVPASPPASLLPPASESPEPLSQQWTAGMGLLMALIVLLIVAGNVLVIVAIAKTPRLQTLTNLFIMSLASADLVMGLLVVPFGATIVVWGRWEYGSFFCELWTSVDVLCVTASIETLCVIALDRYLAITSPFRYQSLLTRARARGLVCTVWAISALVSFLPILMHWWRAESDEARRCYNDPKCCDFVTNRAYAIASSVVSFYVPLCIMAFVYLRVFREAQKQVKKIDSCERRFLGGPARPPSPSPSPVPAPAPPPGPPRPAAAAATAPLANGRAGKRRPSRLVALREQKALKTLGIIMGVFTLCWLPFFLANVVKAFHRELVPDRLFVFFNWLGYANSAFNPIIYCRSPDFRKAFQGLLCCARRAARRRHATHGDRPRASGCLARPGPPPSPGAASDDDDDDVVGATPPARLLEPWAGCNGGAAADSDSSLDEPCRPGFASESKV", "assay": "beta1 (h) CEREP ligand profiling", "conditions": "Compound concentration 10.0 uM"}, "[14]": {"target": "Cannabinoid receptor 1 (Homo sapiens, UniProt P21554)", "sequence (P21554 whole entry)": "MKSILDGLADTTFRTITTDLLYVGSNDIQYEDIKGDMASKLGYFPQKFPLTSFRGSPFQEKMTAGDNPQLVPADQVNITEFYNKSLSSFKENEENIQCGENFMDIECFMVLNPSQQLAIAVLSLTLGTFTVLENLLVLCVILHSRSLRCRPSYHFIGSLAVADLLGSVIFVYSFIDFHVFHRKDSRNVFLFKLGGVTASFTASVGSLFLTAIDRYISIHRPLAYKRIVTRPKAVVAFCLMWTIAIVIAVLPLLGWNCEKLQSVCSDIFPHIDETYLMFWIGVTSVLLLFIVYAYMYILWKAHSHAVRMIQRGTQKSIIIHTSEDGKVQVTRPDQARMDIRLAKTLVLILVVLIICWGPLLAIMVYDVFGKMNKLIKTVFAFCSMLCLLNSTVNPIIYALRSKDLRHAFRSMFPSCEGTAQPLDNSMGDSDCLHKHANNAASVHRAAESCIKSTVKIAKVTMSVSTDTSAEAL", "assay": "CB1 (h) CEREP ligand profiling"}, "[15]": {"target": "T4, GABA-A receptor; anion channel (Homo sapiens) (UniProt P14867+P47870+P18507+P28472+P48169+Q99928+Q9UN88+P34903+O00591+O14764+Q8N1C3+P18505+P78334+P47869+P31644+Q16445)", "assay": "BZD (central) CEREP ligand profiling", "type": "protein-complex assay", "conditions": "Compound concentration 10.0 uM"}, "[16]": {"target": "T5, Muscarinic acetylcholine receptor M1 (Homo sapiens) (UniProt P11229)", "T5 sequence (whole entry)": "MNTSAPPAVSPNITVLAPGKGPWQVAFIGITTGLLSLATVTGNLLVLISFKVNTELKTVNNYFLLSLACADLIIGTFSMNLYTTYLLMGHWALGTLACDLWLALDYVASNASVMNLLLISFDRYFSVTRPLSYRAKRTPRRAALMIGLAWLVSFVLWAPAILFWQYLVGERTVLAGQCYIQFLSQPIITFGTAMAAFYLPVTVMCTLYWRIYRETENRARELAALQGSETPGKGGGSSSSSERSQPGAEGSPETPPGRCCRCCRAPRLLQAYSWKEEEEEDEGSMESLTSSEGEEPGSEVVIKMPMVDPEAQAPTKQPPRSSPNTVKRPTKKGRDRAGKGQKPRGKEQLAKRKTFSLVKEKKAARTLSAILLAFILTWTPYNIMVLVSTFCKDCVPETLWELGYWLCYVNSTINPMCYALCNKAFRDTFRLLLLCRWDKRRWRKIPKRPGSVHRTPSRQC", "assay": "M1 (h) CEREP ligand profiling", "conditions": "Compound concentration 10.0 uM"}, "[17]": {"target": "D(1A) dopamine receptor (Homo sapiens) (UniProt P21728)", "assay": "D1 (h) CEREP ligand profiling", "conditions": "Compound concentration 10.0 uM"}, "[18]": {"target": "5-hydroxytryptamine receptor 1B (Homo sapiens) (UniProt P28222)", "assay": "5-HT1B CEREP ligand profiling", "conditions": "Compound concentration 10.0 uM"}, "[19]": {"target": "Adenosine receptor A1 (Homo sapiens) (UniProt P30542)", "assay": "A1 (h) CEREP ligand profiling", "conditions": "Compound concentration 10.0 uM"}, "[20]": {"target": "5-hydroxytryptamine receptor 2A (Homo sapiens, UniProt P28223)", "sequence (P28223 whole entry)": "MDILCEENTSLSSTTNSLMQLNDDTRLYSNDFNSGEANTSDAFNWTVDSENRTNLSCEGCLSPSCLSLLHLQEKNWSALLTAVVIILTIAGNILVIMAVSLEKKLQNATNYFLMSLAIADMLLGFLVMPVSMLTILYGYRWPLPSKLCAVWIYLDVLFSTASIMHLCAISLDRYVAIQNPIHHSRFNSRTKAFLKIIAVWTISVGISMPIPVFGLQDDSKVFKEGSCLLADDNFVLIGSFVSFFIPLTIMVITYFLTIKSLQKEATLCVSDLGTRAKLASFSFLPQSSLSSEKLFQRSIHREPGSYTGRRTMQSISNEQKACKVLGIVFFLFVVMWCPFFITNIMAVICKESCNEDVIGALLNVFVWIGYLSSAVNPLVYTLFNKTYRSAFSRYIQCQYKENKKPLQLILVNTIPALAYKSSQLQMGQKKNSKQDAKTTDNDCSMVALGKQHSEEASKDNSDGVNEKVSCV", "assay": "5-HT2A (h) (agonist site) CEREP ligand profiling"}, "[21]": {"target": "Sodium-dependent noradrenaline transporter (Homo sapiens) (UniProt P23975)", "sequence (P23975 whole entry)": "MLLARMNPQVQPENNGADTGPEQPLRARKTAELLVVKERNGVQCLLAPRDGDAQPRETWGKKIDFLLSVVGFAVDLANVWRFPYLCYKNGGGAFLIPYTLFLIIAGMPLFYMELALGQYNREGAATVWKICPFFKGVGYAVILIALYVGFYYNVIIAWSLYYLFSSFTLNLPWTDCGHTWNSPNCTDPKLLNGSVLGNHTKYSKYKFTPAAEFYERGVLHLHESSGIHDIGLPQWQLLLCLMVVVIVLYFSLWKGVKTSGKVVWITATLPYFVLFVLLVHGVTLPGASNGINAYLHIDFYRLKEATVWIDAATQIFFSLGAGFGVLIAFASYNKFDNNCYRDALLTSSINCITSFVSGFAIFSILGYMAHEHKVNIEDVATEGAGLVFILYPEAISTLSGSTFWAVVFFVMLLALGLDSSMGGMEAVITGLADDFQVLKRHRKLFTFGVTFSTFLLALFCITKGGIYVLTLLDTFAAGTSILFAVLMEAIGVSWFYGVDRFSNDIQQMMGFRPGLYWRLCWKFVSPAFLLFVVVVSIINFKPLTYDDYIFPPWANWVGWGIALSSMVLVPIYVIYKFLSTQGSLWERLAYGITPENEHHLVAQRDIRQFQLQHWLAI", "assay": "NE transporter (h) CEREP ligand profiling", "conditions": "Compound concentration 10.0 uM"}, "[22]": {"target": "Mu-type opioid receptor (Homo sapiens) (UniProt P35372)", "sequence (P35372 whole entry)": "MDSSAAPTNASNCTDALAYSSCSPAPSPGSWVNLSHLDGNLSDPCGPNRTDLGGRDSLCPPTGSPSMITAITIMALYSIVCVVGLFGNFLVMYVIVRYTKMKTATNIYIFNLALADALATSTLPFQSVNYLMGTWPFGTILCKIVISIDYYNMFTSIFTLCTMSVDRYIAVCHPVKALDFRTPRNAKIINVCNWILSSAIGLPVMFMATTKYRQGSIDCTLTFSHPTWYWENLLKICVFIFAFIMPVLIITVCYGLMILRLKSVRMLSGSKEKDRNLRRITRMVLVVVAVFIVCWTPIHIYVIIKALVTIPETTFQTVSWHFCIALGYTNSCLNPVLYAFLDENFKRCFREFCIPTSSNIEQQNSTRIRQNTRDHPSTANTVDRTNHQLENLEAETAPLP", "assay": "mu (h) (MOP) (agonist site) CEREP ligand profiling", "conditions": "Compound concentration 10.0 uM"}, "[23]": {"target": "Beta-3 adrenergic receptor (Homo sapiens) (UniProt P13945)", "conditions": "Compound concentration 10.0 uM"}, "[24]": {"target": "Phosphodiesterase 3 (Homo sapiens) (UniProt Q14432+Q13370)", "assay": "PDE 3 (h) CEREP ligand profiling", "type": "protein assay", "conditions": "Compound concentration 10.0 uM"}, "[25]": {"target": "T4, GABA-A receptor; anion channel (Homo sapiens)", "assay": "GABAA CEREP ligand profiling", "type": "protein-complex assay", "conditions": "Compound concentration 10.0 uM"}, "[26]": {"target": "Cholecystokinin receptor type A (Homo sapiens) (UniProt P32238)", "sequence (P32238 whole entry)": "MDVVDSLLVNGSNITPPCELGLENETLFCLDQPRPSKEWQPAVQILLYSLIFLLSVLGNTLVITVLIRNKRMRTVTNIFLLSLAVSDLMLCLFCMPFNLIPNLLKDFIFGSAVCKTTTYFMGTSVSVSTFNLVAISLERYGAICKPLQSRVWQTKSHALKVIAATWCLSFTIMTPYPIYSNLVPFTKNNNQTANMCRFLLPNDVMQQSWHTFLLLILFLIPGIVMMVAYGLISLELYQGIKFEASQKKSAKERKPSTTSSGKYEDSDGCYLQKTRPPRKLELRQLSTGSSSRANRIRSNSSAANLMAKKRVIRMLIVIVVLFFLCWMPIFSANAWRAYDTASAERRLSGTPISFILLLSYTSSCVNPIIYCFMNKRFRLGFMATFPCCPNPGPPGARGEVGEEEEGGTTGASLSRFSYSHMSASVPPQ", "assay": "CCKA (h) (CCK1) CEREP ligand profiling", "conditions": "Compound concentration 10.0 uM"}}, "data": [{"smiles": "O=C(Nc1cccnn1)N1CCC(=Cc2cccc(Oc3ccc(C(F)(F)F)cn3)c2)CC1", "values": [{"measurement": "inhibition at 10 µM", "setting": "[1]", "value": "13% (not active)"}, {"measurement": "Ki", "setting": "[2]", "value": 1340, "unit": "nM"}, {"measurement": "inhibition", "setting": "[3]", "value": 11, "unit": "%"}, {"measurement": "inhibition", "setting": "[4]", "value": 15, "unit": "%"}, {"measurement": "inhibition", "setting": "[5]", "value": -8, "unit": "%"}, {"measurement": "inhibition", "setting": "[6]", "value": -1, "unit": "%"}, {"measurement": "inhibition", "setting": "[7]", "value": 35, "unit": "%"}, {"measurement": "inhibition", "setting": "[8]", "value": -6, "unit": "%"}, {"measurement": "inhibition", "setting": "[9]", "value": -1, "unit": "%"}, {"measurement": "inhibition", "setting": "[10]", "value": -2, "unit": "%"}, {"measurement": "inhibition", "setting": "[11]", "value": -8, "unit": "%"}, {"measurement": "inhibition", "setting": "[12]", "value": 8, "unit": "%"}, {"measurement": "inhibition", "setting": "[13]", "value": 1, "unit": "%"}, {"measurement": "Ki", "setting": "[14]", "value": 14000, "unit": "nM"}, {"measurement": "inhibition", "setting": "[14]; Compound concentration 10.0 uM", "value": 55, "unit": "%"}, {"measurement": "inhibition", "setting": "[15]", "value": 15, "unit": "%"}, {"measurement": "inhibition", "setting": "[16]", "value": 36, "unit": "%"}, {"measurement": "inhibition", "setting": "[17]", "value": 3, "unit": "%"}, {"measurement": "inhibition", "setting": "[18]", "value": -3, "unit": "%"}, {"measurement": "inhibition", "setting": "[19]", "value": 3, "unit": "%"}, {"measurement": "Ki", "setting": "[20]", "value": 1600, "unit": "nM"}, {"measurement": "inhibition", "setting": "[20]; Compound concentration 10.0 uM", "value": 57, "unit": "%"}, {"measurement": "inhibition", "setting": "[21]", "value": -5, "unit": "%"}, {"measurement": "inhibition", "setting": "[22]", "value": 3, "unit": "%"}, {"measurement": "inhibition", "setting": "[23]", "value": 0.69, "unit": "%"}, {"measurement": "inhibition", "setting": "[24]", "value": 10, "unit": "%"}, {"measurement": "inhibition", "setting": "[25]", "value": -4, "unit": "%"}, {"measurement": "inhibition", "setting": "[26]", "value": -10, "unit": "%"}]}]}
